For 2 molecules, Activity and Crop_yield results are on record in ChEMBL document CHEMBL3046685, “Otebo bean (Phaseolus vulgaris) sensitivity to pre-emergence herbicides” (Crop Prot, 2006).

Data set [1] has as its system Phaseolus vulgaris. Briefly: Phytotoxicity in Phaseolus vulgaris (otebo bean) assessed as plant height at 1250 g ai/ha applied as spray during pre-emergence treatment for 1 to 2 days measured 28 days post emergence (reference value: 29 cm). In kind it is organism-based. Conditions: in vivo, other.
For data set [2], the system named is Vigna angularis. Briefly: Phytotoxicity in Vigna angularis (adzuki bean) assessed as reduction in shoot dry weight at 2500 g ai/ha applied prior to planting relative to control. In kind it is organism-based. The arrangement: scale not given: the % may be the effect or the level left. Conditions: in vivo, other.
Data set [3] has as its system Phaseolus vulgaris. Nature of the data set: Increase in Phaseolus vulgaris (otebo bean) yield at 2500 g ai/ha applied as spray during pre-emergence treatment for 1 to 2 days (reference value: 3.8 t/ha). In kind it is functional.
In data set [4] the test system is Phaseolus vulgaris. Nature of the data set: Increase in Phaseolus vulgaris (otebo bean) yield at 1250 g ai/ha applied as spray during pre-emergence treatment for 1 to 2 days (reference value: 3.8 t/ha). It counts as functional.
Data set [5] relates to Vigna angularis. Briefly: Phytotoxicity in Vigna angularis (adzuki bean) assessed as visual injury at 2500 g ai/ha applied prior to planting relative to control. It counts as organism-based. The following applies: in vivo, other.
Data set [6] has as its system Vigna angularis. Nature of the data set: Phytotoxicity in Vigna angularis (adzuki bean) assessed as reduction in crop yield at 2500 g ai/ha applied prior to planting relative to control. In kind it is organism-based. The following applies: in vivo, other.
Data set [7] concerns Phaseolus vulgaris. Nature of the data set: Phytotoxicity in Phaseolus vulgaris (otebo bean) assessed as change in moisture content at 1250 to 2500 g ai/ha applied as spray during preemergence treatment for 1 to 2 days. Conditions: in vivo, other. It counts as organism-based.
Data set [8] deals with Phaseolus vulgaris. Nature of the data set: Phytotoxicity in Phaseolus vulgaris (otebo bean) assessed as visual injury at 1250 g ai/ha applied as spray during pre-emergence treatment for 1 to 2 days measured 7 days post emergence relative to untreated control. In kind it is organism-based. The following applies: in vivo, other.
The subject of data set [9] is Phaseolus vulgaris. Nature of the data set: Phytotoxicity in Phaseolus vulgaris (otebo bean) assessed as shoot dry weight at 2500 g ai/ha applied as spray during pre-emergence treatment for 1 to 2 days measured 42 days post emergence (reference value: 164 g). Conditions: in vivo, other. It counts as organism-based.
The test system of data set [10] is Phaseolus vulgaris. Briefly: Phytotoxicity in Phaseolus vulgaris (otebo bean) assessed as shoot dry weight at 1250 g ai/ha applied as spray during pre-emergence treatment for 1 to 2 days measured 42 days post emergence (reference value: 164 g). In kind it is organism-based. The following applies: in vivo, other.
Data set [11] has as its system Phaseolus vulgaris. Nature of the data set: Phytotoxicity in Phaseolus vulgaris (otebo bean) assessed as plant height at 2500 g ai/ha applied as spray during pre-emergence treatment for 1 to 2 days measured 28 days post emergence (reference value: 29 cm). The following applies: in vivo, other. In kind it is organism-based.
The subject of data set [12] is Phaseolus vulgaris. Briefly: Phytotoxicity in Phaseolus vulgaris (otebo bean) assessed as visual injury at 2500 g ai/ha applied as spray during pre-emergence treatment for 1 to 2 days measured 28 days post emergence relative to untreated control. It counts as organism-based. The following applies: in vivo, other.
Data set [13] concerns Phaseolus vulgaris. Nature of the data set: Phytotoxicity in Phaseolus vulgaris (otebo bean) assessed as visual injury at 1250 g ai/ha applied as spray during pre-emergence treatment for 1 to 2 days measured 28 days post emergence relative to untreated control. In kind it is organism-based. Conditions: in vivo, other.
In data set [14] the test system is Phaseolus vulgaris. Nature of the data set: Phytotoxicity in Phaseolus vulgaris (otebo bean) assessed as visual injury at 2500 g ai/ha applied as spray during pre-emergence treatment for 1 to 2 days measured 14 days post emergence relative to untreated control. In kind it is organism-based. The following applies: in vivo, other.
The test system of data set [15] is Phaseolus vulgaris. Briefly: Phytotoxicity in Phaseolus vulgaris (otebo bean) assessed as visual injury at 1250 g ai/ha applied as spray during pre-emergence treatment for 1 to 2 days measured 14 days post emergence relative to untreated control. In kind it is organism-based. Conditions: in vivo, other.
The subject of data set [16] is Phaseolus vulgaris. Nature of the data set: Phytotoxicity in Phaseolus vulgaris (otebo bean) assessed as visual injury at 2500 g ai/ha applied as spray during pre-emergence treatment for 1 to 2 days measured 7 days post emergence relative to untreated control. Conditions: in vivo, other. In kind it is organism-based.
The test system of data set [17] is Phaseolus vulgaris. Briefly: Phytotoxicity in Phaseolus vulgaris (otebo bean) assessed as plant height at 2000 g ai/ha applied as spray during pre-emergence treatment for 1 to 2 days measured 28 days post emergence (reference value: 29 cm). It counts as organism-based. Conditions: in vivo, other.
In data set [18] the test system is Phaseolus vulgaris. Briefly: Phytotoxicity in Phaseolus vulgaris (otebo bean) assessed as plant height at 1000 g ai/ha applied as spray during pre-emergence treatment for 1 to 2 days measured 28 days post emergence (reference value: 29 cm). It counts as organism-based. The following applies: in vivo, other.
The subject of data set [19] is Phaseolus vulgaris. Briefly: Phytotoxicity in Phaseolus vulgaris (otebo bean) assessed as shoot dry weight at 1000 g ai/ha applied as spray during pre-emergence treatment for 1 to 2 days measured 42 days post emergence (reference value: 164 g). It counts as organism-based. The following applies: in vivo, other.
Data set [20] concerns Phaseolus vulgaris. Briefly: Increase in Phaseolus vulgaris (otebo bean) yield at 2000 g ai/ha applied as spray during pre-emergence treatment for 1 to 2 days (reference value: 3.8 t/ha). It counts as functional.
For data set [21], the system named is Phaseolus vulgaris. Nature of the data set: Increase in Phaseolus vulgaris (otebo bean) yield at 1000 g ai/ha applied as spray during pre-emergence treatment for 1 to 2 days (reference value: 3.8 t/ha). It counts as functional.
The test system of data set [22] is Phaseolus vulgaris. Nature of the data set: Phytotoxicity in Phaseolus vulgaris (otebo bean) assessed as visual injury at 2000 g ai/ha applied as spray during pre-emergence treatment for 1 to 2 days measured 7 days post emergence relative to untreated control. It counts as organism-based. The following applies: in vivo, other.
Data set [23] relates to Phaseolus vulgaris. Briefly: Phytotoxicity in Phaseolus vulgaris (otebo bean) assessed as change in moisture content at 1000 to 2000 g ai/ha applied as spray during preemergence treatment for 1 to 2 days. It counts as organism-based. Conditions: in vivo, other.
Data set [24] has as its system Phaseolus vulgaris. Briefly: Phytotoxicity in Phaseolus vulgaris (otebo bean) assessed as shoot dry weight at 2000 g ai/ha applied as spray during pre-emergence treatment for 1 to 2 days measured 42 days post emergence (reference value: 164 g). It counts as organism-based. The following applies: in vivo, other.
The test system of data set [25] is Phaseolus vulgaris. Briefly: Phytotoxicity in Phaseolus vulgaris (otebo bean) assessed as visual injury at 2000 g ai/ha applied as spray during pre-emergence treatment for 1 to 2 days measured 28 days post emergence relative to untreated control. It counts as organism-based. The following applies: in vivo, other.
Data set [26] relates to Phaseolus vulgaris. Briefly: Phytotoxicity in Phaseolus vulgaris (otebo bean) assessed as visual injury at 1000 g ai/ha applied as spray during pre-emergence treatment for 1 to 2 days measured 28 days post emergence relative to untreated control. In kind it is organism-based. The following applies: in vivo, other.
The subject of data set [27] is Phaseolus vulgaris. Briefly: Phytotoxicity in Phaseolus vulgaris (otebo bean) assessed as visual injury at 2000 g ai/ha applied as spray during pre-emergence treatment for 1 to 2 days measured 14 days post emergence relative to untreated control. It counts as organism-based. The following applies: in vivo, other.
Data set [28] relates to Phaseolus vulgaris. Briefly: Phytotoxicity in Phaseolus vulgaris (otebo bean) assessed as visual injury at 1000 g ai/ha applied as spray during pre-emergence treatment for 1 to 2 days measured 14 days post emergence relative to untreated control. It counts as organism-based. The following applies: in vivo, other.
Data set [29] has as its system Phaseolus vulgaris. Nature of the data set: Phytotoxicity in Phaseolus vulgaris (otebo bean) assessed as visual injury at 1000 g ai/ha applied as spray during pre-emergence treatment for 1 to 2 days measured 7 days post emergence relative to untreated control. In kind it is organism-based. Conditions: in vivo, other.

With `COCC(C)N(C(=O)CCl)c1c(C)csc1C` (centres undefined) [DIMETHENAMID], the Activity in data set [1] is recorded as 30 cm; in data set [2], 53%; in data set [5] it was 37%; in data set [7] it was “Non-toxic”; in [8] it was 1%; in data set [9] it was 154 g. For the same molecule, the Activity in data set [10] is 167 g; in [11], 29 cm; in [12], 1%; in data set [13], 0%; in data set [14], 3%; in [15], 1%. Besides, the Activity in data set [16] is recorded as 4%. Further, the results for the Crop_yield in data set [3], in [4] and in data set [6] were 4.5 tons/ha, 4.5 tons/ha and 38%, respectively.
On to `CC1(C)CON(Cc2ccccc2Cl)C1=O` [CLOMAZONE], for which the Activity is on record as 26 cm in data set [17]; 28 cm in [18]; 143 g in [19]; 13% in [22]; “Non-toxic” in [23]; 123 g in data set [24]. Also, the Activity is given as 9% in data set [25]; 2% in data set [26]; 12% in data set [27]; 5% in data set [28]; 5% in [29]. The Crop_yield in [20] turned out to be 4.1 tons/ha; in data set [21] it was 4.5 tons/ha.
